Counter-ions that a name gives are not always drawn.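 Dose response: 5 concentrations. Exposure: 48 h. Format: 96-well plates. Endpoint: linear interpolation; highest concentration if not reached. Here, GI50 denotes the concentration required for 50% inhibition of growth.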 Calls of active or inactive are those of the source. Cut-off read from the data, not from the text of the source: active = GI50 up to about 1.1 µM and inactive = higher.
Tests used:
Experiment in all cases: NCI anticancer screen, dose series, 48 h
MDA-MB-435 = test system: MDA-MB-435
COLO 205 = test system: COLO 205
SK-OV-3 = test system: SK-OV-3
KM12 = test system: KM12
NCI-H23 = test system: NCI-H23
NCI-H460 = test system: NCI-H460
BT-549 = test system: BT-549
MDA-MB-231 = test system: MDA-MB-231
U-251 = test system: U-251
SNB-75 = test system: SNB-75
NCI-H226 = test system: NCI-H226
DU-145 = test system: DU-145
CCRF-CEM = test system: CCRF-CEM
OVCAR-4 = test system: OVCAR-4
ACHN = test system: ACHN
SF-295 = test system: SF-295

SMILES	GI50 (MDA-MB-435)	GI50 (COLO 205)	GI50 (SK-OV-3)	GI50 (KM12)	GI50 (NCI-H23)	GI50 (NCI-H460)	GI50 (BT-549)	GI50 (MDA-MB-231)	GI50 (U-251)	GI50 (SNB-75)	GI50 (NCI-H226)	GI50 (DU-145)	GI50 (CCRF-CEM)	GI50 (OVCAR-4)	GI50 (ACHN)	GI50 (SF-295)
COC1=C(N2CC2)C(=O)c2nc3n(c2C1=O)CCC3	1.45 µM (inactive)	0.656 µM (active)	1.18 µM (inactive)	1.37 µM (inactive)	0.497 µM (active)	0.45 µM (active)	1.15 µM (inactive)	2.72 µM (inactive)	1.4 µM (inactive)	1.71 µM (inactive)	1.87 µM (inactive)	0.372 µM (active)	0.265 µM (active)	0.22 µM (active)	0.275 µM (active)	0.815 µM (active)
NCCN1C(=O)c2ccccc2C1(O)c1ccc(Cl)cc1 (centres undefined)	15.3 µM (inactive)	19.6 µM (inactive)	24.4 µM (inactive)	16.9 µM (inactive)	36.8 µM (inactive)	16.4 µM (inactive)	42.6 µM (inactive)	15.5 µM (inactive)	16.1 µM (inactive)	21.9 µM (inactive)	48.8 µM (inactive)	33.9 µM (inactive)	25.4 µM (inactive)	28.5 µM (inactive)	23 µM (inactive)	21.9 µM (inactive)
COc1ccc(OC)c2c(C)ccnc12	25.7 µM (inactive)	39.5 µM (inactive)	> 86.1 µM (inactive)	37.2 µM (inactive)	27.2 µM (inactive)	21.7 µM (inactive)	27.4 µM (inactive)	34 µM (inactive)	16.4 µM (inactive)	33.1 µM (inactive)	25.5 µM (inactive)	24.1 µM (inactive)	5.25 µM (inactive)	9.77 µM (inactive)	18.3 µM (inactive)	16.5 µM (inactive)
O=[N+]([O-])c1cc([As](Br)c2ccc(O)c([N+](=O)[O-])c2)ccc1O	1.78 µM (inactive)	1.26 µM (inactive)	3.39 µM (inactive)	2 µM (inactive)	2.17 µM (inactive)	3.12 µM (inactive)	1.88 µM (inactive)	1.39 µM (inactive)	1.82 µM (inactive)	1.93 µM (inactive)	1.5 µM (inactive)	2 µM (inactive)	0.167 µM (active)	1.66 µM (inactive)	1.86 µM (inactive)	1.8 µM (inactive)
c1cc2nsnc2c2c[nH]cc12	40.6 µM (inactive)	> 100 µM (inactive)	> 100 µM (inactive)	> 100 µM (inactive)	> 100 µM (inactive)	86.3 µM (inactive)	49.7 µM (inactive)	56.6 µM (inactive)	–	50.6 µM (inactive)	99.5 µM (inactive)	> 100 µM (inactive)	> 100 µM (inactive)	> 100 µM (inactive)	81.5 µM (inactive)	> 100 µM (inactive)
CC(=O)Nc1cc2ccc(=O)oc2cc1Cl	> 100 µM (inactive)	> 100 µM (inactive)	–	> 100 µM (inactive)	> 100 µM (inactive)	> 100 µM (inactive)	> 100 µM (inactive)	> 100 µM (inactive)	> 100 µM (inactive)	> 100 µM (inactive)	> 100 µM (inactive)	> 100 µM (inactive)	> 100 µM (inactive)	> 100 µM (inactive)	> 100 µM (inactive)	> 100 µM (inactive)
C=C1CC[C@@H](CCC2CCC3(OC2)O[C@]2(O)CC[C@@]3(C)OC2(C)C)C(C)(C)[C@H]1C/C=C1\CCOC1=O (some centres undefined)	14.3 µM (inactive)	16.3 µM (inactive)	20.4 µM (inactive)	16.2 µM (inactive)	0.444 µM (active)	16.4 µM (inactive)	11.7 µM (inactive)	23.6 µM (inactive)	15.1 µM (inactive)	19.6 µM (inactive)	3.91 µM (inactive)	12.5 µM (inactive)	10.4 µM (inactive)	12.3 µM (inactive)	10.7 µM (inactive)	–
COc1ccccc1N1C(=O)CSC1c1cccc(Oc2ccccc2)c1 (centres undefined)	9.82 µM (inactive)	18.6 µM (inactive)	34.8 µM (inactive)	20.1 µM (inactive)	20.8 µM (inactive)	18.2 µM (inactive)	17.1 µM (inactive)	16.4 µM (inactive)	17 µM (inactive)	18.7 µM (inactive)	20.3 µM (inactive)	18.7 µM (inactive)	26.1 µM (inactive)	18.5 µM (inactive)	20.9 µM (inactive)	19.4 µM (inactive)
C=C1c2[nH]c3ccccc3c2C2C(CC)C1CCN2C (centres undefined)	65.9 µM (inactive)	16.7 µM (inactive)	> 100 µM (inactive)	> 100 µM (inactive)	> 100 µM (inactive)	82 µM (inactive)	> 100 µM (inactive)	48.4 µM (inactive)	79.3 µM (inactive)	–	6.62 µM (inactive)	> 100 µM (inactive)	54.6 µM (inactive)	53.6 µM (inactive)	> 100 µM (inactive)	55.8 µM (inactive)
Cc1cc(-c2nc3cc(F)ccc3s2)ccc1NC(=O)[C@@H](N)CCCCN	1.79 µM (inactive)	2.58 µM (inactive)	8.26 µM (inactive)	1.3 µM (inactive)	1.48 µM (inactive)	0.132 µM (active)	12.9 µM (inactive)	2.29 µM (inactive)	1.88 µM (inactive)	1.82 µM (inactive)	0.134 µM (active)	13.9 µM (inactive)	–	2.12 µM (inactive)	6.04 µM (inactive)	2.65 µM (inactive)
CCSCCC(N)C(=O)O (centres undefined)	> 100 µM (inactive)	> 100 µM (inactive)	> 100 µM (inactive)	> 100 µM (inactive)	> 100 µM (inactive)	> 100 µM (inactive)	> 100 µM (inactive)	> 100 µM (inactive)	> 100 µM (inactive)	> 100 µM (inactive)	> 100 µM (inactive)	> 100 µM (inactive)	–	> 100 µM (inactive)	> 100 µM (inactive)	> 100 µM (inactive)
O=C1c2c[nH]nc2C(c2ccccc2)N1c1ccccc1 (centres undefined)	> 10 µM (inactive)	> 10 µM (inactive)	> 10 µM (inactive)	> 10 µM (inactive)	> 10 µM (inactive)	> 10 µM (inactive)	> 10 µM (inactive)	> 10 µM (inactive)	> 10 µM (inactive)	> 10 µM (inactive)	> 10 µM (inactive)	> 10 µM (inactive)	> 10 µM (inactive)	> 10 µM (inactive)	> 10 µM (inactive)	> 10 µM (inactive)
O=C1CCCC(=O)N1n1c(Cc2ccccc2)n[nH]c1=O	> 100 µM (inactive)	> 100 µM (inactive)	> 100 µM (inactive)	> 100 µM (inactive)	> 100 µM (inactive)	–	> 100 µM (inactive)	> 100 µM (inactive)	> 100 µM (inactive)	> 100 µM (inactive)	> 100 µM (inactive)	> 100 µM (inactive)	> 100 µM (inactive)	> 100 µM (inactive)	> 100 µM (inactive)	> 100 µM (inactive)
COC(=O)[C@H](Cc1ccccc1)NC(=O)OCC1OC(n2cc(C)c(=O)[nH]c2=O)CC1N=[N+]=[N-] (some centres undefined)	> 100 µM (inactive)	> 100 µM (inactive)	> 100 µM (inactive)	> 100 µM (inactive)	> 100 µM (inactive)	> 100 µM (inactive)	> 100 µM (inactive)	> 100 µM (inactive)	> 100 µM (inactive)	78.3 µM (inactive)	> 100 µM (inactive)	> 100 µM (inactive)	> 100 µM (inactive)	> 100 µM (inactive)	86.1 µM (inactive)	> 100 µM (inactive)
O=C1CNCCCN2CCN(CCCNCC(=O)Nc3ccc(cc3)S(=O)(=O)c3ccc(cc3)NC(=O)CNCCCN3CCN(CCCNCC(=O)Nc4ccc(cc4)S(=O)(=O)c4ccc(cc4)N1)CC3)CC2	20.9 µM (inactive)	34.8 µM (inactive)	> 100 µM (inactive)	27.2 µM (inactive)	30.3 µM (inactive)	10.4 µM (inactive)	30 µM (inactive)	22.5 µM (inactive)	24.5 µM (inactive)	37.2 µM (inactive)	> 47.1 µM (inactive)	41.4 µM (inactive)	1.57 µM (inactive)	> 47.9 µM (inactive)	25.6 µM (inactive)	20.5 µM (inactive)
C/C(Cl)=N/OC(=O)Nc1ccc(F)c([N+](=O)[O-])c1	14.5 µM (inactive)	2.34 µM (inactive)	20.9 µM (inactive)	17.1 µM (inactive)	20 µM (inactive)	4.75 µM (inactive)	14.1 µM (inactive)	17.5 µM (inactive)	20 µM (inactive)	1.71 µM (inactive)	26.4 µM (inactive)	17.3 µM (inactive)	2.13 µM (inactive)	7.36 µM (inactive)	3.02 µM (inactive)	31.1 µM (inactive)
O=C(OCc1ccccc1[N+](=O)[O-])N1c2ccccc2[C@@]23O[C@]24CCC[C@H]3C#C/C=C\C#C[C@H]14	> 100 µM (inactive)	67.3 µM (inactive)	> 100 µM (inactive)	> 100 µM (inactive)	18.7 µM (inactive)	0.362 µM (active)	49.5 µM (inactive)	> 100 µM (inactive)	11 µM (inactive)	–	> 100 µM (inactive)	> 100 µM (inactive)	4.21 µM (inactive)	> 100 µM (inactive)	12.8 µM (inactive)	7.01 µM (inactive)
Oc1ccc(C(O)C2CCCCN2)cc1O (centres undefined) [RIMITEROL HYDROBROMIDE]	> 100 µM (inactive)	> 100 µM (inactive)	> 100 µM (inactive)	> 100 µM (inactive)	> 100 µM (inactive)	> 100 µM (inactive)	> 100 µM (inactive)	> 100 µM (inactive)	> 100 µM (inactive)	> 100 µM (inactive)	> 100 µM (inactive)	> 100 µM (inactive)	–	> 100 µM (inactive)	> 100 µM (inactive)	> 100 µM (inactive)
